Data published in a melting point compilation (Tetko et al.; mined from patent text by program, amines drawn as free bases though some values may be those of a salt).

First: Cc1onc(-c2ccccc2)c1-c1nc(-c2c(F)cccc2Cl)nn1C
Second: CCCc1nc(C)n2nc(C)nc2c1Cc1ccc(-c2ccccc2C#N)cc1
The melting point of the first is lower: 120 to 125 °C for the first, 132 °C for the second.

O=C(O)C1Cc2cc3c(=O)c4ccccc4oc3c(Cl)c2O1 (stereo not given) and O=C(O)c1cn2c3c(cc(Cl)cc3c1=O)C(O)CC2 (stereo not given) cannot be ordered by melting point: 290 to 293 °C for the first, > 250 °C for the second.

First: COC(=O)c1cnc(C(=O)O)nc1
Second: COC(=O)c1cccc2c1ccn2S(C)(=O)=O
The melting point of the first is higher: 152 to 154 °C for the first, 102 to 104 °C for the second.

First: CCOC(=O)c1ccc(NN2CN(Nc3ccc(C(=O)OCC)cc3)CN(Nc3ccc(C(=O)OCC)cc3)C2)cc1
Second: CCOC(=O)CC[C@H](NC(=O)c1ccc(C(C)=Cc2cnc3nc(N)nc(N)c3c2)cc1)C(=O)OCC
The melting point of the first is lower: 218 to 223 °C for the first, > 300 °C for the second.

Compared with CCCOc1ccc(-c2ccc3c(c2)C=C(C(=O)Nc2ccc(CN(C)C4CCOCC4)cc2)CCN3C)cc1, O=C(Nc1ccc2cc(CN3CCCC3)cnc2c1)c1ccc(-c2ccc(F)cc2)nc1 is higher in melting point: 149 to 151 °C for the first, 218 to 220 °C for the second.

Compared with CC(CN(C)C)N1c2ccccc2Sc2ccc(C(=O)NCC3CC3)cc21 (racemic), CC(C)c1cccc(C(C)C)c1NC(=O)NC1CCc2ccccc2C1 (stereo not given) is higher in melting point: 90 °C for the first, 214 to 215 °C for the second.

First: CSc1nc(NC2CC2)nc(Cl)c1C#N
Second: ClCSc1nc(Cl)c(Cl)nc1Cl
The melting point of the first is higher: 139 to 141 °C for the first, 68 to 70 °C for the second.

First: CC(C)(C)C(=O)n1c(=O)n(CCN2CCC(=C(c3ccc(F)cc3)c3ccc(F)cc3)CC2)c(=O)c2cscc21
Second: Cc1ccc(S(=O)(=O)NC(=O)N2CCN(C(=O)c3ccc(Nc4ccnc5cc(C(F)(F)F)ccc45)cc3)CC2)cc1
The melting point of the first is lower: 69 to 72 °C for the first, 253 to 255 °C for the second.

Compared with CC(C)(C)C(=O)Nc1ccc2oc3c(c2c1)CCCCCC3, Fc1ccc(-c2nc3c(c(=S)[nH]2)CCCC3)cc1 is higher in melting point: 189 to 190 °C for the first, 198 to 200 °C for the second.

First: Cn1cc(-c2ccc(C(=O)N3Cc4cccn4Cc4ccccc43)cc2)cn1
Second: Cc1ccccc1C(=O)Nc1ccc(C(=O)N2Cc3cccn3Cc3ccccc32)cc1
The melting point of the first is lower: 200 to 201 °C for the first, 212 to 215 °C for the second.

First: CNC(=O)C(CNC(=O)c1ccccc1)NC(=O)OC(C)(C)C (stereo not given)
Second: C[C@H]1[C@H](NC(=O)OC(C)(C)C)C(=O)N1OCc1ccccc1
The melting point of the first is higher: 222 to 223 °C for the first, 78 °C for the second.

First: O[C@@H]1C=C[C@H](n2cnc3c(Cl)ncnc32)C1 (racemic)
Second: OC1CSC(Oc2ccc(-n3ccnc3)cc2)C(O)C1O (stereo not given)
The melting point of the first is lower: 118 °C for the first, 180 °C for the second.

Compared with COc1cc2ncc3c4cc5c(cc4ccc3c2cc1OC)OCO5, CNc1ccc(C(=O)Nc2cccc(-c3nc(NC)nc4cc(OC)c(OC)cc34)c2)cn1 is lower in melting point: 225 °C for the first, 193 to 195 °C for the second.

First: O=C(CN1c2nc(-c3ccncc3)cc(=O)n2CCC1c1ccccc1)c1ccc2ccccc2c1 (stereo not given)
Second: Cc1ccccc1N(CC(=O)N(C)c1ccccc1)C(=O)CN1C(=O)c2ccccc2C1=O
The melting point of the first is higher: 226 to 228 °C for the first, 120 °C for the second.

Cc1[nH]c(-c2ccccc2)c2nc(-c3ccccc3)[nH]c(=O)c12 and O=C1N=c2ccc(C3(c4nc5ccc(-c6ccccc6)cc5[nH]4)N=c4ccccc4=N3)cc2=NC1=O cannot be ordered by melting point: 345 to 348 °C for the first, > 280 °C for the second.

First: N#Cc1ccc(OCc2ccsc2)cc1OC(CCC(=O)O)c1c(F)cccc1Cl (racemic)
Second: Oc1ccc(OCCCCOc2ccc(O)cc2)cc1
The melting point of the first is lower: 128 to 130 °C for the first, 202 to 204 °C for the second.

Compared with NC(=O)N(O)Cc1ccc(N2CCC(=O)CC2)cc1, O=C(c1ccc([N+](=O)[O-])cc1)N1CCCCc2sc(Cl)c(Cl)c21 is higher in melting point: 138 to 140 °C for the first, 140 to 142 °C for the second.

Compared with c1cc2[nH]ncc2nc1N1CCCCC1, CNC(=O)NCCN1CCC(Nc2nc3ccccc3n2Cc2ccc(C)o2)CC1 is lower in melting point: 217 to 218 °C for the first, 200 °C for the second.

First: CCCCCCOc1cccc2c(OCCCCCC)cccc12
Second: CCCCCCCCCCCCCCOc1cccc(CC(=O)Nc2ccccc2CO)c1
The melting point of the first is lower: 92 to 93 °C for the first, 100 to 103 °C for the second.

Compared with COC(=O)Nc1c(C#N)cnn1-c1ccc(Cl)c(Cl)c1Cl, COC(=O)C(Cl)=Cc1cc(-n2ncc(C(F)(F)F)c(C)c2=O)ccc1Cl is lower in melting point: 205 to 207 °C for the first, 80 to 81 °C for the second.

First: CCOC(=O)C(=CNc1cccc(C(F)(F)F)n1)C(=O)OCC
Second: Nc1cccc(S(=O)(=O)NCC(F)(F)F)c1
The melting point of the first is lower: 125 to 128 °C for the first, 131 °C for the second.

First: COc1cc(OC)c2c(=O)[nH]c(-c3cc(C)nc(C)c3)nc2c1
Second: COc1cc(OC)c2c(=O)[nH]c(-c3cc(C)c(OCCN4CCOCC4)c(C)c3)cc2c1
The melting point of the first is higher: 291 to 292 °C for the first, 196 to 198 °C for the second.

First: O=CNCS(=O)(=O)c1ccc2ccccc2c1
Second: CNC(=O)Oc1cccc(C2CCCN2C(=O)c2ccccc2)c1 (stereo not given)
The melting point of the first is higher: 139 to 141 °C for the first, 117 to 121 °C for the second.

First: CCOC(=O)COc1nc2cc(OC)cc(OC)c2cc1-c1ccc(OC)cc1
Second: COc1ccc(Cc2cnc(NCCCCc3ncc(Br)cc3C)[nH]c2=O)cc1
The melting point of the first is lower: 95 to 96 °C for the first, 149 to 150 °C for the second.

First: O=C(CCC#Cc1ccccn1)Nc1cccc(Cl)c1
Second: O=C(NCc1ccc(Cl)c(Cl)c1)Nc1cccc2[nH]ccc12
The melting point of the first is lower: 168 to 169 °C for the first, 201 °C for the second.

Compared with CCC1=NCC(c2cccc(O)c2)O1 (stereo not given), CCCCC1OC(=O)c2cc(NC=O)ccc21 (stereo not given) is higher in melting point: < 84 °C for the first, 127 to 129 °C for the second.

First: Cn1cc(-c2cccc(C(F)(F)F)c2)c(=O)n1-c1cccc(C(F)(F)F)c1
Second: CN(CN1C(=O)c2ccccc2C1=O)c1c(S(=O)C(F)(F)F)c(C#N)nn1-c1c(Cl)cc(C(F)(F)F)cc1Cl (stereo not given)
The melting point of the first is lower: 110 to 111 °C for the first, 163 °C for the second.

First: N=CN1C(C(=O)NN)C(Sc2ccccc2)=CC(=O)N1c1ccccc1 (stereo not given)
Second: O=C(C=C1C(=O)N(c2ccccc2)C(=O)N1c1ccccc1)Nc1ccccc1
The melting point of the first is higher: 236 to 238 °C for the first, 214 °C for the second.

First: O=C(O)CCCCOC(c1ccccc1)(c1ccccc1)c1ccccc1
Second: O=C(OC[C@H]1CC(=O)[C@@H]1COC(=O)c1ccccc1)c1ccccc1
The melting point of the first is higher: 146 to 148 °C for the first, 93 to 94 °C for the second.

First: CCOC(=O)C1=C(C)NC(C)=C(C(=O)OCC)C1c1ccccc1[N+](=O)[O-]
Second: Cc1cc(NC(=O)c2ccccc2O)cc(C)c1O
The melting point of the first is lower: 120 to 121 °C for the first, 142 to 145 °C for the second.

Compared with COc1ccc(C(=O)NCCCCCCCCCNC(=O)c2ccc(OC)cc2)cc1, CCCCOc1ccc(S(=O)(=O)OC2CN(S(=O)(=O)c3ccc(OCCCC)cc3)C2)cc1 is lower in melting point: 156 to 157 °C for the first, 90 to 93 °C for the second.

First: CN(c1cccc2cc(C3=NCC4(CCOCC4)S3)[nH]c12)S(=O)(=O)c1cccs1
Second: NS(=O)(=O)c1ccc(-c2cc(-c3c[nH]nc3-c3cccc(C4CC4)n3)ccc2F)cc1
The melting point of the first is lower: 189 to 191 °C for the first, 225 to 226 °C for the second.

Compared with COCCN1CCN(CCc2ccccc2Nc2ncnc3[nH]cc(C(=O)c4ccccc4)c23)CC1, NC(=O)c1ccc(-c2ccc3ncn(Cc4ccc5ncccc5c4)c3n2)cc1Cl is higher in melting point: 192 to 193 °C for the first, 212 to 214 °C for the second.

First: Nc1ncc2sc(=O)n(C3OC(CO)C(O)C3O)c2n1 (stereo not given)
Second: CCOC(=O)C(Cc1ccc(OCCn2c(=O)sc3cc(C(=NO)C4CC4)ccc32)cc1)OCC(F)(F)F (stereo not given)
The melting point of the first is higher: 220 °C for the first, 105 to 107 °C for the second.

First: O=c1c2cc(F)ccc2[nH]c2c([N+](=O)[O-])ccc(Cl)c12
Second: Cn1cc(S(=O)(=O)Cl)c(=O)c2cc(F)c(Cl)cc21
The melting point of the first is lower: 287 to 291 °C for the first, > 300 °C for the second.

First: COc1ccc(N2CCSC2=N)c([N+](=O)[O-])c1
Second: O=[N+]([O-])c1cccc(Br)c1CBr
The melting point of the first is higher: 156 °C for the first, 61.5 to 63 °C for the second.

First: O=C1CCC(Br)C(=O)N1 (stereo not given)
Second: O=C1CCC(N2Cc3c(OCc4cc(CN5CCOCC5)no4)cccc3C2=O)C(=O)N1 (stereo not given)
The melting point of the first is lower: 76 to 83 °C for the first, 228 to 230 °C for the second.

First: CCC(C)(CC)c1nnc(NC(=O)c2ccccc2)s1
Second: NC(=S)NCc1ccccc1Cl
The melting point of the first is lower: 98 to 100 °C for the first, 120 to 122 °C for the second.

First: O=C1c2ccccc2C(=O)N1Cc1noc(-c2ncn3c2[C@@H]2CCN2C(=O)c2ccccc2-3)n1
Second: CC(C)=CCn1c(=O)c(C2=Nc3ccccc3S(=O)(=O)N2)c(O)c2ccccc21
The melting point of the first is higher: 290 to 292 °C for the first, 249 to 251 °C for the second.

First: CCCCC1(C(=O)N[C@@H](Cc2ccc(NC(=O)c3c(Cl)cccc3Cl)cc2)C(=O)OC)CCCC1
Second: Cc1ccc(Sc2ccc3c(c2)CC[C@H]2NC(=O)CC[C@]32C)cc1
The melting point of the first is lower: 193 to 196 °C for the first, 209 to 212 °C for the second.

CCOc1cc2cc(CO)c(CO)c(-c3ccnc(-n4ccc5ccccc5c4=O)c3)c2cc1OCC and COc1ccc2cc(-c3cnccn3)ccc2n1 cannot be ordered by melting point: 131 to 134 °C for the first, 130 to 132 °C for the second.

First: COc1cc2c(cc1OC(C)=O)C1Cc3c(Cl)cc(OC)c(OC(C)=O)c3CN1CC2 (single isomer, unassigned; (-))
Second: COc1c2c(c(OC)c(OC)c1OC)CCC(CCOc1cccnc1)CC2
The melting point of the first is higher: 202 to 203 °C for the first, 111 to 113 °C for the second.

First: CCOc1n[nH]cc1C(=O)NCc1ccc(Cl)cc1Cl
Second: C#CCc1c(C)nc2c(NCc3ccccc3Cl)cccn12
The melting point of the first is higher: 197 to 198 °C for the first, 115 to 116 °C for the second.

First: CC1(C)OC(=O)Nc2ccc(-c3cncc(Br)c3)cc21
Second: Cc1ccc2sc3cc(C(=O)Cl)ccc3c2c1
The melting point of the first is higher: 211 to 212 °C for the first, 127 to 128 °C for the second.

First: CC(C)n1c(=O)nc(N(C)C)[nH]c1=O
Second: Cc1nc(Cl)sc1C=O
The melting point of the first is higher: 213 to 214 °C for the first, 77 to 78 °C for the second.

First: Cc1nc(N2CCN(Cc3cccc(C(F)(F)F)c3)C2=O)sc1-c1cc[nH]n1
Second: Cn1ccnc1NC(=O)c1c(C(F)(F)F)nc2c(C(F)(F)F)cccc2c1O
The melting point of the first is lower: 209 to 214 °C for the first, 259 °C for the second.

Compared with Cc1oc(C2(C)CC=CCC2)nc1CC(=O)O (stereo not given), CC(=O)N1CCC2(CC1)Nc1cc(C)ccc1-n1cccc12 is higher in melting point: 144 to 145 °C for the first, 212 to 213 °C for the second.

First: CC(NC(=C(C#N)S(=O)(=O)c1ccc(Cl)cc1)N(C)c1cc(C(F)(F)F)cc(C(F)(F)F)c1)C(C)(C)C (stereo not given)
Second: Cc1cc(CCCCCS(=O)c2ccc(C3=NCCO3)cc2)on1 (stereo not given)
The melting point of the first is higher: 152 to 154 °C for the first, 110 to 111 °C for the second.

Compared with Cc1c[nH]c2c(=O)n(CC(=O)NC3CC(=O)OC3OCc3ccccc3)cnc12 (stereo not given), O=C1NCCN1C(=O)N1CCOCC1 is lower in melting point: 240 to 244 °C for the first, 158 °C for the second.

First: CN(CC#CI)c1nc(CO)cs1
Second: Cc1c(C#N)sc(Br)c1Br
The melting point of the first is higher: 118 to 119 °C for the first, 77 to 80 °C for the second.
